{
  "source": "patent US20110020312A1",
  "about": "“METHODS FOR TREATMENT OF METABOLIC DISORDERS USING EPIMETABOLIC SHIFTERS, MULTIDIMENSIONAL INTRACELLULAR MOLECULES, OR ENVIRONMENTAL INFLUENCERS” (priority 2009, published 2011)",
  "key": {"HK-2 cells": {"test_system": "HK-2 cells", "assay": "Diabetes PCR array in cell model for diabetes (22 mM glucose)", "type": "cell-based, human", "description": "The HK-2 and HASMC cells are normally maintained in culture at 5.5 mM glucose, which is a concentration that corresponds to a range considered normal in human blood. However, in order to simulate a diabetic environment, both cell lines were subsequently maintained at 22 mM glucose, which corresponds to the range observed in human blood associated with chronic hyperglycemia. The cells were subsequently allowed to propagate over 3 passages so that the intracellular regulation processes were functionally adapted to mimic a diabetic state. The choice of cell line was based on the physiologic influence of diabetes on renal dysfunction and progression to end-stage renal disease (ESRD) in addition to the progressive pathophysiology of a compromised cardiovascular function.\nThe Diabetes PCR array (SABiosciences) offers a screen for 84 genes simultaneously.\nA stringent analysis of the Real time PCR data of the HK-2 samples on the Diabetes Arrays (Cat # PAHS-023E, SABiosciences Frederick Md.) was made to exclude all results where gene regulation was not at least a two-fold regulation over HK-2 normal untreated cells with a p value of less than 0.05."}, "[1]": {"test_system": "Pancreatic Cancer Cells (PaCa2)", "assay": "Real-time PCR Apoptosis Array", "type": "cell-based", "conditions": "100 uM Q10, various times", "description": "Experiments were carried out essentially as described above."}},
  "data": [
    {"smiles": "COC1=C(OC)C(=O)C(C/C=C(\\C)CC/C=C(\\C)CC/C=C(\\C)CC/C=C(\\C)CC/C=C(\\C)CC/C=C(\\C)CC/C=C(\\C)CC/C=C(\\C)CC/C=C(\\C)CCC=C(C)C)=C(C)C1=O", "note": "[Q10, Coenzyme Q10]", "values": [
      {"measurement": "CEACAM1 RNA transcript", "setting": "HK-2 cells; HK2(H) cells, particularly with 100 μM Coenzyme Q10", "result": "highly upregulated"},
      {"measurement": "insulin receptor (INSR) expression", "setting": "HK-2 cells; diabetic HK-2 cells", "result": "altered"},
      {"measurement": "genes modulated by Q10 treatment (Apoptosis arrays)", "setting": "[1]", "result": "ABL1, AKT1, Bcl2L1, BclAF1, CASP1, CASP2, CASP6, CIDEA, FADD, LTA, TNF, TNFSF10A and TNFSF10"}
    ]}
  ]
}
